We go through 19 compounds from PubChem BioAssay (NCI).

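Protocol summary: plate cells (96-well), add compound at 5 concentrations, incubate 48 h, interpolate endpoints linearly. The concentration for full growth arrest is given as TGI.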

Holding throughout (experiment): NCI tumour cell line growth inhibition, 48 h
The test system of assay [1] is UACC-257 melanoma.
In assay [2] the test system is SF-268 CNS.
In assay [3] the test system is NCI-H226 lung.
Assay [4] relates to HS 578T breast.
Assay [5] relates to HCT-15 colon.
Assay [6] relates to XF 498 CNS.
The test system of assay [7] is KM20L2 colon.
The test system of assay [8] is LXFL 529 NSCLC.
Assay [9] concerns DMS 273 small cell lung.
In assay [10] the test system is M19-MEL melanoma.
The subject of assay [11] is DMS 114 small cell lung.
For assay [12], the system named is P388/ADR leukemia.
For assay [13], the system named is DLD-1 colon.
Assay [14] relates to HOP-18 NSCLC.
Assay [15] relates to SN12K1 renal.
Assay [16] relates to SNB-78 CNS.

As to `Cc1cc(Nc2ccc(NS(C)(=O)=O)cc2)c2c(ccc3nccc32)[nH]1`, the TGI in [1] is 34.7 µM; in assay [2], 23 µM; in assay [3], 41.9 µM; in assay [4] it was > 100 µM; in assay [5] it was > 100 µM.

`O=C(O)/C(=C\c1ccc(O)cc1)c1cccc2ccccc12`: the TGI in assay [1], in [2], in [3], in [4] and in [5] was > 100 µM throughout.

On to `Cc1nc2ccc(F)cc2c(Cl)c1CCCl`, for which the TGI in [1], in assay [2], in assay [3], in assay [4] and in assay [5] was > 100 µM in each case.

Regarding `O=C(C/C(=N/O)C(F)(F)F)c1cccs1`, the TGI in assay [1], in [2], in assay [3], in assay [4] and in assay [5] was > 100 µM in each case.

Take `COC(=O)C(Cc1ccc(N(C)C)cc1)(NC(=O)c1ccccc1)P(=O)(OC)OC` (centres undefined): the TGI in [1], in [6], in [2], in assay [3], in [7] and in assay [8] was > 100 µM throughout. Also, the TGI in assay [9], in [10], in assay [5] and in assay [11] was > 100 µM each time.

Consider `Cc1ccc(N=Nc2c(O)ccc3cc(S(=O)(=O)O)ccc23)cc1`, for which the TGI in assay [1], in assay [2], in [3], in [4] and in assay [5] was > 100 µM in each case.

Take `COC(=O)C1=C(C(=O)OC)C(N(C)C)C(C(=O)OC)=C(C(=O)OC)S1`: the TGI in [1], in assay [2], in [3], in assay [4] and in [5] was > 100 µM each time.

As for `Cc1cc2c(cc1C)C(=O)C1(C2)Cc2cc3c(cc2C1=O)CCC3` (centres undefined), the TGI in assay [1], in [2], in [3], in [4] and in assay [5] was > 100 µM in each case.

Turning to `COC1=CC(=O)C=C(OC)C1=O`, the TGI came out at 34.4 µM in assay [1]; 6.34 µM in [6]; 1.08 µM in assay [12]; 15.3 µM in [2]; 30.8 µM in assay [3]; 66.8 µM in assay [7]. The TGI in assay [9] stood at 76.8 µM; in assay [10], 8.19 µM; in assay [13], 27.9 µM; in [5], 80.9 µM; in [14] it was 79.7 µM; in [15], 18 µM. For the same compound, the TGI in assay [16] turned out to be 56.8 µM; in assay [11], 13.5 µM.

Regarding `N#Cc1cc(Sc2ccc(N)c(C#N)c2)ccc1N`, the TGI in assay [1] is > 100 µM; in [2], 59 µM; in assay [3], 81 µM; in assay [4] it was 39.3 µM; in assay [5], 38.9 µM.

Regarding `N/C(=N\Nc1ccc(Cl)cc1)c1cnccn1`, the TGI in assay [1], in assay [2], in assay [3], in assay [4] and in assay [5] was > 100 µM throughout.

For `COc1c(Br)cc2ccccc2c1-c1c(OC)c(Br)cc2ccccc12`, the TGI in [1], in assay [2], in assay [3], in [4] and in assay [5] was > 100 µM in each case.

As for `O=C1CSC(c2ccc([N+](=O)[O-])cc2)N1c1ccc(-c2ccc(-n3c(-c4ccccc4)nc4ccccc4c3=O)cc2)cc1` (centres undefined), the TGI in assay [1], in assay [2], in [3], in [4] and in [5] was > 100 µM in each case.

As for `CCCCc1ccc(Nc2nc(Cl)c3c(ncn3C3CC(Oc4ccc(C)cc4)C(COc4ccc(C)cc4)O3)n2)cc1` (centres undefined), the TGI in assay [1], in [2], in assay [3], in [4] and in assay [5] was > 100 µM in each case.

Turning to `COC(=O)CNC(=O)CCC(C)[C@H]1CCC2C3C(C[C@H](OC(C)=O)[C@@]21C)[C@@]1(C)CCC2(C[C@H]1C[C@H]3OC(C)=O)OOC1(CC[C@]3(C)C4C[C@H](OC(C)=O)[C@@]5(C)C(CC[C@@H]5C(C)CCC(=O)NCC(=O)OC)C4[C@H](OC(C)=O)C[C@@H]3C1)OO2` (some centres undefined), the TGI in assay [1] was found to be 2.74 µM; in assay [2] it was 16.1 µM; in assay [3] it was 3.46 µM; in assay [4] it was 2.37 µM; in assay [5], 5.42 µM.

On to `COC(=O)C(Cc1c[nH]c2ccccc12)NP(=O)(O)OCC1OC(n2cc(Br)c(=O)[nH]c2=O)CC1O` (centres undefined), for which the TGI in assay [1], in [2], in assay [3], in assay [4] and in [5] was > 100 µM each time.

For `O=C(Nc1ccccc1Cl)c1ccc([N+](=O)[O-])cc1`, the TGI in assay [1], in assay [6], in [2], in assay [3], in assay [7] and in assay [9] was > 100 µM throughout. In addition, the TGI in [10], in assay [13], in assay [5] and in assay [16] was > 100 µM throughout.

Regarding `C/C=C(\C)C(=O)O[C@@H]1CC(C)(C)CC2C3=CCC4[C@]56CC[C@](O)(OC5)C(C)(C)C6CC[C@@]4(C)C3(C)CC[C@]21C(=O)O` (some centres undefined), the TGI in assay [1], in [2], in assay [3], in assay [4] and in assay [5] was > 100 µM in each case.

Regarding `Cn1c2ccccc2c2cc(N3CCCC3)c3c(c21)C(=O)N(c1ccccc1)C3=O`, the TGI in assay [1], in assay [2], in assay [3], in [4] and in assay [5] was > 100 µM in each case.
